This note sets out measurements from patent US9902703B2, “Somatostatin modulators and uses thereof” (Crinetics Pharmaceuticals, Inc., priority 2015, dated 2018).

T1 sequence (P30874 whole entry): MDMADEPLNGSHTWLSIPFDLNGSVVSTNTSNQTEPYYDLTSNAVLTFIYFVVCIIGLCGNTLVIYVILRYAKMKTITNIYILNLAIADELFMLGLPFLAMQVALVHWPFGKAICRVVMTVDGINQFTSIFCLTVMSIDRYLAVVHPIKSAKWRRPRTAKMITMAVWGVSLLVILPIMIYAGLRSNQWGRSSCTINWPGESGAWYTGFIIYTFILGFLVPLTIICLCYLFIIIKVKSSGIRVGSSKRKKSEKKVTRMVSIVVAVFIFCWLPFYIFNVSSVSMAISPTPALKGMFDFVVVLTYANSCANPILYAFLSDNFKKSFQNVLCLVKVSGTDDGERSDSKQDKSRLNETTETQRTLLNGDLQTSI

The assay has as its target T1, human somatostatin receptor subtype 2 (Homo sapiens, UniProt P30874).
T1 construct: expressed in transfected cells; host or cells: CHO (Chinese hamster ovary) cells, G-418 selected
As to the kind of experiment: cAMP assay (functional assay for SSTR2 agonists). Type of assay: cell-based. Conditions: CHO cells expressing human SSTR2; intracellular cAMP with forskolin, HTRF; read-out: SSTR2a EC50. From the text: Functional Assay for SSTR2 Agonists
General overview: All five SSTR subtypes are Gi coupled G-protein coupled receptors (GPCRs) that lead to decreases in intracellular cyclic AMP (cAMP) when activated by an agonist. Therefore, measurement of intracellular cAMP levels can be used to assess whether compounds of the invention are agonists of SSTR subtypes (John Kelly, Troy Stevens, W. Joseph Thompson, and Roland Seifert, Current Protocols in Pharmacology, 2005, 2.2.1-2.2). One example of an intracellular cAMP assay is described below.
One day prior to the assay, 40,000 Chinese hamster ovary (CHO) cells expressing the human somatostatin receptor subtype 2 are plated in each well of a 96-well tissue culture plate in DM-MEM growth media (Gibco) with the following additives: 10% fetal bovine serum (Gibco), 100 U/mL penicillin (Gibco), 100 ug/mL streptomycin (Gibco), 10 mM HEPES (Gibco), 1.2 mM sodium hydroxide, 0.5 mg/mL G-418 (Gibco)). The cells are cultured overnight at 37° C., 5% CO2 and 95% humidity. On the day of the assay, the media is aspirated and the cells are washed with 1× Dulbecco's phosphate buffered saline (Gibco). Next, 5 μL of assay buffer (1× Earle's Balanced Salt Solution (Gibco), 5 mM MgCl2, 10 mM HEPES, 0.1% bovine serum albumin, 0.2 mM 3-Isobutyl-1-methylxanthine (IBMX, Biomol Research Labs)) and forskolin is added. Various dilutions of the compounds of the invention are prepared in assay buffer and 5 μL of the dilutions are added to the cultured cells and incubated for 15 minutes at 37° C. […] 10 μL of lysis buffer (HRTF cAMP kit, Cisbio) containing cAMP detection and visualization antibodies are added and the assay is allowed incubate for 1-24 hours at room temperature. The intracellular cAMP concentrations are then measured using a commercially available detection kit (for example, the cAMP HTRF kit, Cisbio). The measured intracellular cAMP concentrations are plotted vs. the concentration of the compounds of the invention and the EC50 of the compounds are calculated using standard methods.
Regarding `Cc1cc(Cl)cc(N2C=Nc3cc(C)c(-c4cc(O)ccc4Cl)cc3C2C(=O)N(C)C[C@@H]2CCCN2)c1` (stereo partly drawn) [Compound 1-20, 6-(2-chloro-5-hydroxyphenyl)-3-(3-chloro-5-methylphenyl)-N,7-dimethyl-N-[(2S)-pyrrolidin-2-ylmethyl]-3,4-dihydroquinazoline-4-carboxamide], the EC50 is under 100 nM.
As for `Cc1cc(Cl)cc(N2C=Nc3cc(C)c(-c4cccc(O)c4)cc3C2C(=O)N(C)C[C@@H]2CCCN2)c1` (stereo partly drawn) [Compound 1-17, 3-(3-chloro-5-methylphenyl)-6-(3-hydroxyphenyl)-N,7-dimethyl-N-[(2S)-pyrrolidin-2-ylmethyl]-3,4-dihydroquinazoline-4-carboxamide], the EC50 is under 100 nM.
The same measure for `COc1cc(C#N)cc(-c2cc3c(cc2C)N=CN(c2cc(C)cc(Cl)c2)C3C(=O)N(C)C[C@@H]2CCCN2)c1` (stereo partly drawn) [Compound 2-24, 3-(3-chloro-5-methylphenyl)-6-(3-cyano-5-methoxyphenyl)-N,7-dimethyl-N-[(2S)-pyrrolidin-2-ylmethyl]-3,4-dihydroquinazoline-4-carboxamide]: under 100 nM.
With `Cc1cc(C)cc(N2C=Nc3ccc(-c4cccc(O)c4)cc3C2C(=O)N(C)CCN)c1` (centres unmarked) [Compound 1-2, N-(2-aminoethyl)-3-(3,5-dimethylphenyl)-6-(3-hydroxyphenyl)-N-methyl-3,4-dihydroquinazoline-4-carboxamide] the figure was 100 to 1000 nM.
With `Cc1cc(Cl)cc(N2C=Nc3ccc(-c4cccc(O)c4Cl)cc3C2C(=O)N(C)C[C@@H]2CCCN2)c1` (stereo partly drawn) [Compound 1-29, 6-(2-chloro-3-hydroxyphenyl)-3-(3-chloro-5-methylphenyl)-N-methyl-N-[(2S)-pyrrolidin-2-ylmethyl]-3,4-dihydroquinazoline-4-carboxamide] the figure was under 100 nM; with `Cc1cc(Cl)cc(N2C=Nc3cc(C)c(-c4cc(O)ccc4F)cc3C2C(=O)N(C)C[C@@H]2CCCN2)c1` (stereo partly drawn) [Compound 1-19, 3-(3-chloro-5-methylphenyl)-6-(2-fluoro-5-hydroxyphenyl)-N,7-dimethyl-N-[(2S)-pyrrolidin-2-ylmethyl]-3,4-dihydroquinazoline-4-carboxamide], under 100 nM.
Take `Cc1cc(Cl)cc(N2C=Nc3cc(C)c(-c4cc(C#N)cc(C(F)(F)F)c4)cc3C2C(=O)N(C)C[C@@H]2CCCN2)c1` (stereo partly drawn) [Compound 1-42, 3-(3-chloro-5-methylphenyl)-6-[3-cyano-5-(trifluoromethyl)phenyl]-N,7-dimethyl-N-[(2S)-pyrrolidin-2-ylmethyl]-3,4-dihydroquinazoline-4-carboxamide]: the EC50 is under 100 nM.
The same measure for `CC[C@H](N)CN(C)C(=O)C1c2cc(-c3cc(C)cc(O)c3)c(Cl)cc2N=CN1c1cc(C)cc(C)c1` (stereo partly drawn) [Compound 1-7, N-[(2S)-2-aminobutyl]-7-chloro-3-(3,5-dimethylphenyl)-6-(3-hydroxy-5-methylphenyl)-N-methyl-3,4-dihydroquinazoline-4-carboxamide]: under 100 nM; for `Cc1cc(Cl)cc(N2C=Nc3cc(C)c(-c4cc(O)ccc4C#N)cc3C2C(=O)N(C)C[C@@H]2CCCN2)c1` (stereo partly drawn) [Compound 1-21, 3-(3-chloro-5-methylphenyl)-6-(2-cyano-5-hydroxyphenyl)-N,7-dimethyl-N-[(2S)-pyrrolidin-2-ylmethyl]-3,4-dihydroquinazoline-4-carboxamide]: under 100 nM; for `Cc1cc(C)cc(N2C=Nc3cc(C)c(-c4cccc(O)c4)cc3C2C(=O)NC[C@@H]2CCCN2)c1` (stereo partly drawn) [Compound 1-51, 3-(3,5-dimethylphenyl)-6-(3-hydroxyphenyl)-7-methyl-N-[(2S)-pyrrolidin-2-ylmethyl]-3,4-dihydroquinazoline-4-carboxamide]: 1000 to 10000 nM.
With `Cc1cc(Cl)cc(N2C=Nc3ccc(-c4cccc(O)c4)cc3C2C(=O)N(C)C[C@@H]2CCCN2)c1` (stereo partly drawn) [Compound 1-45, 3-(3-chloro-5-methylphenyl)-6-(3-hydroxyphenyl)-N-methyl-N-[(2S)-pyrrolidin-2-ylmethyl]-3,4-dihydroquinazoline-4-carboxamide] the figure was under 100 nM.
With `CC[C@H](N)CN(C)C(=O)C1c2cc(-c3cc(O)ccc3F)c(C)cc2N=CN1c1cc(C)cc(C)c1` (stereo partly drawn) [Compound 1-10, N-[(2S)-2-aminobutyl]-3-(3,5-dimethylphenyl)-6-(2-fluoro-5-hydroxyphenyl)-N,7-dimethyl-3,4-dihydroquinazoline-4-carboxamide] the figure was under 100 nM; with `Cc1cc(Cl)cc(N2C=Nc3cc(C)c(-c4cc(F)cc(C(F)(F)F)c4)cc3C2C(=O)N(C)C[C@@H]2CCCN2)c1` (stereo partly drawn) [Compound 2-20, 3-(3-chloro-5-methylphenyl)-6-[3-fluoro-5-(trifluoromethyl)phenyl]-N,7-dimethyl-N-[(2S)-pyrrolidin-2-ylmethyl]-3,4-dihydroquinazoline-4-carboxamide], under 100 nM.
`CCOC(=O)Cc1cccc(-c2cc3c(cc2C)N=CN(c2cc(C)cc(Cl)c2)C3C(=O)N(C)C[C@@H]2CCCN2)c1` (stereo partly drawn) [Compound 1-49, ethyl 2-{3-[3-(3-chloro-5-methylphenyl)-7-methyl-4-{methyl[(2S)-pyrrolidin-2-ylmethyl]carbamoyl}-3,4-dihydroquinazolin-6-yl]phenyl}acetate]: the EC50 is 100 to 1000 nM.
The same measure for `Cc1cc(Cl)cc(N2C=Nc3cc(C)c(-c4cc(C(N)=O)ccn4)cc3C2C(=O)N(C)C[C@@H]2CCCN2)c1` (stereo partly drawn) [Compound 2-14, 6-(4-carbamoylpyridin-2-yl)-3-(3-chloro-5-methylphenyl)-N,7-dimethyl-N-[(2S)-pyrrolidin-2-ylmethyl]-3,4-dihydroquinazoline-4-carboxamide]: 100 to 1000 nM.
On to `Cc1cc(Cl)cc(N2C=Nc3cc(C)c(-c4cc(F)cc(C(N)=O)c4)cc3C2C(=O)N(C)C[C@@H]2CCCN2)c1` (stereo partly drawn) [Compound 2-9, 6-(3-carbamoyl-5-fluorophenyl)-3-(3-chloro-5-methylphenyl)-N,7-dimethyl-N-[(2S)-pyrrolidin-2-ylmethyl]-3,4-dihydroquinazoline-4-carboxamide], for which the EC50 was under 100 nM.
Regarding `CC[C@H](N)CN(C)C(=O)C1c2cc(-c3cccc(O)c3)c(Cl)cc2N=CN1c1cc(C)cc(C)c1` (stereo partly drawn) [Compound 1-5, N-[(2S)-2-aminobutyl]-7-chloro-3-(3,5-dimethylphenyl)-6-(3-hydroxyphenyl)-N-methyl-3,4-dihydroquinazoline-4-carboxamide], the concentration for a half-maximal effect (EC50) was under 100 nM.
The same measure for `Cc1cc(Cl)cc(N2C=Nc3cc(C)c(-c4cc(F)cc(C#N)c4)cc3C2C(=O)N(C)C[C@@H]2CCCN2)c1` (stereo partly drawn) [Compound 1-38, 3-(3-chloro-5-methylphenyl)-6-(3-cyano-5-fluorophenyl)-N,7-dimethyl-N-[(2S)-pyrrolidin-2-ylmethyl]-3,4-dihydroquinazoline-4-carboxamide]: under 100 nM.
The same measure for `Cc1cc(Cl)cc(N2C=Nc3cc(C)c(-c4cncc(C#N)c4)cc3C2C(=O)N(C)C[C@@H]2CCCN2)c1` (stereo partly drawn) [Compound 2-18, 3-(3-chloro-5-methylphenyl)-6-(5-cyanopyridin-3-yl)-N,7-dimethyl-N-[(2S)-pyrrolidin-2-ylmethyl]-3,4-dihydroquinazoline-4-carboxamide]: under 100 nM.
With `COc1ccc(F)c(-c2cc3c(cc2C)N=CN(c2cc(C)cc(Cl)c2)C3C(=O)N(C)C[C@@H]2CCCN2)c1` (stereo partly drawn) [Compound 2-5, 3-(3-chloro-5-methylphenyl)-6-(2-fluoro-5-methoxyphenyl)-N,7-dimethyl-N-[(2S)-pyrrolidin-2-ylmethyl]-3,4-dihydroquinazoline-4-carboxamide] the figure was under 100 nM; with `Cc1cc(Cl)cc(N2C=Nc3cc(C)c(-c4cccc(C(N)=O)c4)cc3C2C(=O)N(C)C[C@@H]2CCCCN2)c1` (stereo partly drawn) [Compound 1-24, 6-(3-carbamoylphenyl)-3-(3-chloro-5-methylphenyl)-N,7-dimethyl-N-[(2S)-piperidin-2-ylmethyl]-3,4-dihydroquinazoline-4-carboxamide], under 100 nM.
As to `Cc1cc(Cl)cc(N2C=Nc3cc(C)c(-c4cc(C(F)(F)F)cnc4Cl)cc3C2C(=O)N(C)C[C@@H]2CCCN2)c1` (stereo partly drawn) [Compound 2-19, 6-[2-chloro-5-(trifluoromethyl)pyridin-3-yl]-3-(3-chloro-5-methylphenyl)-N,7-dimethyl-N-[(2S)-pyrrolidin-2-ylmethyl]-3,4-dihydroquinazoline-4-carboxamide], the 50% effective concentration (EC50) is under 100 nM.
The same measure for `Cc1cc(Cl)cc(N2C=Nc3cc(C)c(-c4cc(C(N)=O)ccc4Cl)cc3C2C(=O)N(C)C[C@@H]2CCCN2)c1` (stereo partly drawn) [Compound 2-29, 6-(5-carbamoyl-2-chlorophenyl)-3-(3-chloro-5-methylphenyl)-N,7-dimethyl-N-[(2S)-pyrrolidin-2-ylmethyl]-3,4-dihydroquinazoline-4-carboxamide]: under 100 nM.
